# Laboratory results published in patent US9333178B2, “Essential oil microparticles and uses thereof for preventing enteric diseases” (Universidade Estadual de Campinas—UNICAMP, priority 2012, dated 2016).
# What was measured:
# [1] = tested on: NCI-ADR/RES (ovary, with multidrug resistant phenotype); experiment: In vitro cytotoxicity, SRB assay; type: cell-based, human
# Method: (§1) The in vitro cytotoxicity of essential oils (present invention) were evaluated against two normal cell lines (VERO—African green monkey kidney epithelial cells and HaCat—immortal human keratinocytes) and against a panel of human tumor cells.
# (§2) Based on the results, growth rate graphics from the sample concentration for each of the tested strain were generated.
# (§3) The test results obtained are shown in FIG. 1 (present invention) and table 2. In this model, one way to infer the growth rate is by spectrophotometric reading of the absorbance of cellular proteins stained with sulforhodamine B (SRB), an anionic dye staining bright pink. This dye can bind to protein terminations of basic amino acids in living cells fixed with Trichloroacetic acid (TCA), thus being an independent assay of cell metabolism and allowing a sensitive measurement of protein linearly with the number of cells in culture.
# (§4) This test allows us to evaluate the antitumor activity through exposure of human tumor cells in exponential growth phase at different concentrations of the sample and whether that exposure led to an interruption in the growth rate without cell death ([…]) or caused the death cell (cytocidal activity). To measure the activity, an effective concentration called TGI (total growth inhibition, concentration required for 0% cell growth occurs) (Shoemaker, 2006) was calculated.
# (§5) Chemotherapy doxorubicin was used as positive control. In addition to a standard of comparison, the main purpose of using this control was to verify that all employed cell lines kept the profile of response to chemotherapy. This is because with successive passages necessary for the maintenance of cell culture, there is the possibility of changing the lineage in culture, and this mutation could be detected by the change in response against doxorubicin. Furthermore, in order to minimize the occurrence of mutations, the cell lines are perpetuated only by up to 20 passages, after which they are replaced by new cells of the same strain that were maintained frozen.
# MCF-7 (breast) = experiment: In vitro cytotoxicity, SRB assay; type: cell-based, human
# Method: as §1, §2, §3, §4, §5
# [2] = tested on: NCI-H460 (lung, non-small cells); experiment: In vitro cytotoxicity, SRB assay; type: cell-based, human
# Method: as §1, §2, §3, §4, §5
# [3] = tested on: HaCat (keratinocyte, immortalized normal cell); experiment: In vitro cytotoxicity, SRB assay; type: cell-based, human; conditions: normal cell line
# Method: as §1, §2, §3, §4, §5
# 786-0 (kidney) = experiment: In vitro cytotoxicity, SRB assay; type: cell-based, human
# Method: as §1, §2, §3, §4, §5
# U251 (glioma, CNS) = experiment: In vitro cytotoxicity, SRB assay; type: cell-based, human
# From the text: Based on the results, growth rate graphics from the sample concentration for each of the tested strain were generated. Three effective concentrations called GI50 (growth inhibition, the concentration required to disrupt 50% cell growth), TGI (total growth inhibition, the concentration required for 0% of cell growth) and LC50 (lethal concentration, concentration required for 50% cell death) could be calculated by nonlinear regression, sigmoidal, using 8.0 Origin software.
# [4] = tested on: panel of human tumor cells; experiment: In vitro cytotoxicity, SRB assay, mean over tumor lines; type: cell-based; conditions: arithmetic mean of the TGI values for tumor lines
# Method: as §1, §2
# The test results obtained are shown in FIG. 1 (present invention) and table 2. In this model, one way to infer the growth rate is by spectrophotometric reading of the absorbance of cellular proteins stained with sulforhodamine B (SRB), an anionic dye staining bright pink. This dye can bind to protein terminations of basic amino acids in living cells fixed with Trichloroacetic acid (TCA), thus being an independent assay of cell metabolism and allowing a sensitive measurement of protein linearly with the number of cells in culture. […]
# Chemotherapy doxorubicin was used as positive control. […] This is because with successive passages necessary for the maintenance of cell culture, there is the possibility of changing the lineage in culture, and this mutation could be detected by the change in response against doxorubicin. […]
smiles,measurement,setting,value
COc1cccc2c1C(=O)c1c(O)c3c(c(O)c1C2=O)C[C@@](O)(C(=O)CO)C[C@@H]3O[C@H]1C[C@H](N)[C@H](O)[C@H](C)O1 [Doxorubicin],TGI (Total Growth Inhibition),[1],>25 µg/mL
same,TGI (Total Growth Inhibition),MCF-7 (breast),>25 µg/mL
same,TGI (Total Growth Inhibition),[2],>25 µg/mL
same,TGI (Total Growth Inhibition),[3],>25 µg/mL
same,TGI (Total Growth Inhibition),786-0 (kidney),>25 µg/mL
same,TGI (Total Growth Inhibition),"U251 (glioma, CNS)",1.24 µg/mL
same,TGI Average,[4],>25 µg/mL
